Assay results taken from article PMC11071649, “Synthesis and Selective Anticancer Activity Evaluation of 2-phenylacrylonitrile Derivatives as Tubulin Inhibitors” (Current Medicinal Chemistry, 2024).
Where two headings read alike, the source gives them in different places.

Assays:
L-02 normal liver cell = test: MTT assay, L-02 normal cells; format: cell-based, human; conditions: 48 h
Method in brief: (§1)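 Cell lines plated in 96-well plates and exposed to compounds; anti-proliferative activity determined by MTT read-out as inhibition of net cell growth.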

[1] = system: HCT116 colectal cancer cell; test: MTT anti-proliferative assay, HCT116; format: cell-based, human; conditions: for IC50: MTT, 48 h
Method in brief: as §1

[2] = system: MCF-10A normal breast cell; test: MTT assay, MCF-10A normal cells; format: cell-based, human; conditions: 48 h
Method in brief: as §1

HepG2 hepatoma cell = test: MTT anti-proliferative assay, HepG2; format: cell-based, human; conditions: MTT, 48 h, read-out: IC50 HepG-2
Method in brief: as §1

A549 lung cancer cell = test: MTT anti-proliferative assay, A549; format: cell-based, human; conditions: MTT, 48 h
Method in brief: as §1

[3] = system: MGC-803 late stage differentiation gastric cancer cell; test: MTT anti-proliferative assay, MGC-803; format: cell-based, human; conditions: for IC50: MTT, 48 h
Method in brief: as §1

MCF-7 breast cancer cell = test: MTT anti-proliferative assay, MCF-7; format: cell-based, human; conditions: MTT, 48 h
Method in brief: as §1

[4] = system: BEL-7402 liver cancer cell; test: MTT anti-proliferative assay, BEL-7402; format: cell-based, human; conditions: for IC50: MTT, 48 h
Method in brief: as §1

[5] = system: diffuse large B-cell lymphoma SU-DHL-10 cell; test: MTT anti-proliferative assay, SU-DHL-10; format: cell-based, human
Method in brief: as §1

[6] = system: SGC-7901 early differentiation gastric cancer cell; test: MTT anti-proliferative assay, SGC-7901; format: cell-based, human; conditions: for IC50: MTT, 48 h
Method in brief: as §1

[7] = system: Raji B lymphoblastoid cell; test: MTT anti-proliferative assay, Raji; format: cell-based, human
Method in brief: as §1

[8] = system: HeLa cervical cancer cell; test: MTT anti-proliferative assay, HeLa; format: cell-based, human; conditions: MTT, 48 h
Method in brief: as §1

AGS gastric cancer cell = test: MTT anti-proliferative assay, AGS; format: cell-based, human; conditions: for IC50: MTT, 48 h
Method in brief: as §1

HeLa cancer cells = system: HeLa cancer cells; design: method as in PMID 27887843; conditions: Fig. 1; cited from earlier work
[9] = Homo sapiens, SU-DHL10, MTT, 48 h, read-out: IC50 SU-DHL-10
[10] = Homo sapiens, Raji, MTT, 48 h, read-out: IC50 Raji

Row | Compound | IC50 (L-02 normal liver cell; Homo sapiens) [µM] | IC50 ([1]; Homo sapiens, HCT-116) [µM] | IC50 ([2]; Homo sapiens, MCF-10A) [µM] | IC50 (HepG2 hepatoma cell; Homo sapiens, HepG2) [µM] | IC50 (A549 lung cancer cell; Homo sapiens, A549) [µM] | IC50 ([3]; Homo sapiens, MGC-803) [µM] | IC50 (MCF-7 breast cancer cell; Homo sapiens, MCF7) [µM] | IC50 ([4]; Homo sapiens, Bel-7402) [µM] | IC50 [5, 9] [µM] | IC50 ([6]; Homo sapiens, SGC-7901) [µM] | melting point [°C] | IC50 [7, 10] [µM] | IC50 ([8]; Homo sapiens, HeLa) [µM] | IC50 (AGS gastric cancer cell; Homo sapiens) [µM] | SI (selectivity index), IC50 (L-02)/IC50 (HCT-116) [1] | SI (selectivity index), IC50 (L-02)/IC50 (SU-DHL-10) [5] | SI (selectivity index), IC50 (L-02)/IC50 (Raji) [7] | other results
1 | COc1ccc(C(=O)/C=C/c2ccc(/C=C(\C#N)c3ccc(OC(F)(F)F)cc3)cc2)cc1 [Compound 8a] | > 100 | 56.3 ± 8.4 | 11.3 ± 2.3 | > 100 | > 100 | > 100 | 17.6 ± 6.5 | 13.2 ± 2.7 | 1.3 ± 0.1 | > 100 | 148 to 150 | 1.2 ± 0.5 | > 100 | > 100 | – | – | – | IC50 ([5]; Homo sapiens, SU-DHL10, read-out: IC50 SU-DHL-10 cells): ~1 µM; IC50 ([7]; Homo sapiens, Raji, read-out: IC50 Raji cells): ~1 µM
2 | N#C/C(=C\c1ccc(/C=C/C(=O)c2ccccc2)cc1)c1ccc(OC(F)(F)F)cc1 [Compound 8b] | > 100 | > 100 | > 100 | > 100 | > 100 | > 100 | > 100 | > 100 | > 100 | > 100 | 155 to 157 | > 100 | > 100 | > 100 | – | – | – | –
3 | N#C/C(=C\c1ccc(/C=C/C(=O)c2ccc(F)cc2)cc1)c1ccc(OC(F)(F)F)cc1 [Compound 8c] | – | – | – | – | – | – | – | – | – | – | – | – | – | – | > 4.3 | > 96.1 | > 99.0 | IC50 (L-02 normal liver cell): > 100 µM; IC50 ([1]; read-out: IC50 HCT-116): 22.9 ± 6.2 µM; IC50 [2]: 15.8 ± 2.5 µM; IC50 (HepG2 hepatoma cell): > 100 µM; IC50 (A549 lung cancer cell): > 100 µM; SI (selectivity index), IC50 (L-02)/IC50 (MGC-803) [3]: > 1.1; IC50 [3]: 87.5 ± 0.6 µM; IC50 (MCF-7 breast cancer cell): 67.7 ± 5.4 µM; SI (selectivity index), IC50 (L-02)/IC50 (BEL-7402) [4]: > 1.2; IC50 [4]: 77.4 ± 3 µM; IC50 ([5]; MTT, 48 h, read-out: IC50 SU-DHL-10): 1 ± 0.2 µM; IC50 ([5]; read-out: IC50 SU-DHL-10 cells): ~1 µM; SI (selectivity index), IC50 (L-02)/IC50 (SGC-7901) [6]: > 4.5; IC50 [6]: 22.2 ± 8.6 µM; IC50 ([7]; MTT, 48 h, read-out: IC50 Raji): 1 ± 0.2 µM; IC50 ([7]; read-out: IC50 Raji cells): ~1 µM; IC50 [8]: > 100 µM; SI (selectivity index), IC50 (L-02)/IC50 (AGS) (AGS gastric cancer cell): > 3.9; IC50 (AGS gastric cancer cell): 25.3 ± 7.5 µM
4 | N#C/C(=C\c1ccc(/C=C/C(=O)c2ccc(Br)cc2)cc1)c1ccc(OC(F)(F)F)cc1 [Compound 8d] | > 100 | 35.3 ± 6.5 | 37.3 ± 4.3 | > 100 | > 100 | > 100 | 53.1 ± 7.1 | > 100 | 7.1 ± 2.6 | > 100 | 145 to 147 | 3 ± 1 | > 100 | 31.8 ± 6.1 | > 1.7 | > 14.0 | > 79.3 | –
5 | N#C/C(=C\c1cn(Cc2ccccc2)c2ccccc12)c1ccc(OC(F)(F)F)cc1 [Compound 9, (Z)-3-(1-benzyl-1H-indol-3-yl)-2-(4-(trifluoromethoxy)phenyl)acrylonitrile] | > 100 | > 100 | > 100 | > 100 | > 100 | > 100 | > 100 | > 100 | > 100 | > 100 | 118 to 120 | > 100 | > 100 | > 100 | – | – | – | –
6 | Oc1ccc(/C=C/c2cc(O)cc(O)c2)cc1 [Resveratrol, resveratrol, reference compound] | 12.8 ± 0.2 | 16.7 ± 3.6 | > 100 | > 100 | > 100 | > 100 | 72.4 ± 9.9 | 42.5 ± 5.4 | > 100 | > 100 | – | > 100 | > 100 | > 100 | – | – | – | IC50 (HeLa cancer cells): 120 µM
